{
  "source": "patent US10695437B2",
  "about": "“Polycomplexes of poly-lysine compounds for preventing and/or combatting amyotrophic lateral sclerosis” (GEMAC, priority 2016, dated 2020)",
  "origin": "cited, not measured here",
  "test_system": "ALS",
  "conditions": "ALS patients",
  "data": [
    {"smiles": "Nc1nc2ccc(OC(F)(F)F)cc2s1", "note": "[Riluzole]", "values": [
      {"measurement": "Side effects", "value": "numerous side effects (liver toxicity)"}
    ]}
  ]
}
